Experimental data as given in US20100317656A1, “IMIDAZO[1,2-a]PYRIDINE-2-CARBOXAMIDE DERIVATIVES, PREPARATION THEREOF AND APPLICATION THEREOF IN THERAPEUTICS” (SANOFI-AVENTIS, priority 2008, published 2010).
pEC50: −log10 of the molar value.

Each compound was assayed against T1, mouse Nurr1 receptor (Mus musculus, UniProt Q06219) (assay: Evaluation of the in vitro activity on N2A cells (NBRE-luciferase reporter)). Settings: N2A (Neuro-2A) cells endogenously expressing Nurr1, stably transfected with 8NBRE-luciferase; products incubated 24 hours; luminescence.
T1 construct: a cell line (N2A) endogenously expressing the mouse Nurr1 receptor; host or cells: Neuro-2A (N2A) mouse neuroblastoma cells stably transfected with 8NBRE-luciferase
T1 sequence (Q06219 whole entry): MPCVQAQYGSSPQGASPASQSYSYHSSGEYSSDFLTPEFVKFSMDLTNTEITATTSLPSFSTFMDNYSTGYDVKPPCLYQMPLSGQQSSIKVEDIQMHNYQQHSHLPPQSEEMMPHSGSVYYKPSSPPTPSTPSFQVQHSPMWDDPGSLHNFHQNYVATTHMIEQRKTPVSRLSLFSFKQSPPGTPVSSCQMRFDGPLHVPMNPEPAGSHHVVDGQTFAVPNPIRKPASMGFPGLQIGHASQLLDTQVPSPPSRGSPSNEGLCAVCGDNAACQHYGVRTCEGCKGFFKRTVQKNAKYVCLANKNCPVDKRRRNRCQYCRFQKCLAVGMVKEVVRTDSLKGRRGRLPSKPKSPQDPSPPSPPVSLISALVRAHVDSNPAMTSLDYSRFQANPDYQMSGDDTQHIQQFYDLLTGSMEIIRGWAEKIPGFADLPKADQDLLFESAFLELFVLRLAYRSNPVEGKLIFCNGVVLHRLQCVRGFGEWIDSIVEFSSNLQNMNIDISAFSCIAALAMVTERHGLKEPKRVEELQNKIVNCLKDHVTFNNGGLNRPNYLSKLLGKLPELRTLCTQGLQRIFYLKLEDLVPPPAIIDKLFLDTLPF
Type: cell-based
Procedure: The activity of the compounds according to the invention was evaluated on a cell line (N2A) endogenously expressing the mouse Nurr1 receptor and stably transfected with the NOT binding response element (NBRE) coupled to the luciferase reporter gene. The EC50 values are between 0.01 and 1000 nM. The assays were carried out according to the procedure described below.
The Neuro-2A cell line comes from a standard commercial source (ATCC). The Neuro-2A clone was obtained, from a spontaneous tumour originating from an A albino mouse strain, by R. J Klebe et al. This Neuro-2A line is subsequently stably transfected with 8NBRE-luciferase. The N2A-8NBRE cells are cultured until confluence in 75 cm^2 culture flasks containing DMEM supplemented with 10% of foetal calf serum, 4.5 g/l of glucose and 0.4 mg/ml of geneticin. After a week of culture, the cells are recovered with 0.25% trypsin for 30 seconds and then resuspended in DMEM without phenol red, containing 4.5 g/l of glucose and 10% of Hyclone delipidized serum, and deposited into transparent-bottom 96-well white plates. The cells are deposited at a rate of 60 000 per well in 75 μl for 24 hours before the addition of the products. The products are applied in 25 μl and incubated for a further 24 hours. On the day of the measurement, an equivalent volume (100 μl) of Steadylite is added to each well and then left for a period of 30 minutes in order to obtain complete cell lysis and maximum signal production. The plates are subsequently measured in a luminescence counter for microplates after having been sealed with an adhesive film. The products are prepared in the form of a stock solution at 10^−2M and then diluted in 100% of DMSO. Each product concentration is prediluted in culture medium before incubation with the cells, thus containing 0.625% final concentration of DMSO.
`O=C(c1cn2cc(-c3cccc(CO)c3)ccc2n1)N1CC=CCC1` [Compound 8, {3-[2-[(1,2,5,6-Tetrahydropyridin-1-yl)carbonyl]imidazo[1,2-α]pyridin-6-yl]phenyl}methanol] gave a pEC50 of 9.10. `O=C(c1cn2cc(-c3cccc(CO)c3)ccc2n1)N1CC=CC1` [Compound 7, {3-[2-(2,5-Dihydro-1H-pyrrol-1-ylcarbonyl)imidazo[1,2-α]pyridin-6-yl]phenyl}methanol] was tested, and the pEC50 was 8.30. Work on `CN(C)c1ccc2nc(C(=O)N3CCc4ccc(F)cc43)cn2c1` [Compound 17, 2-[(6-Fluoro-2,3-dihydro-1H-indol-1-yl)carbonyl]-N,N-dimethylimidazo[1,2-α]pyridin-6-amine] yielded a pEC50 of 8.17. `O=C(c1cn2cc(-c3nc[nH]n3)ccc2n1)N1CCc2ccccc21` [Compound 35, 2-(2,3-Dihydro-1H-indol-1-ylcarbonyl)-6-(1H-1,2,4-triazol-3-yl)imidazo[1,2-α]pyridine] gave a pEC50 of 7.96. For `O=C(c1cn2cc(-c3c[nH]cn3)ccc2n1)N1CCc2ccccc21` [Compound 43, 2-(2,3-Dihydro-1H-indol-1-ylcarbonyl)-6-(1H-imidazol-4-yl)imidazo[1,2-α]pyridine], the pEC50 was 8.62. With `O=C(c1cn2cc(-c3ncco3)ccc2n1)N1CC=CCC1` [Compound 30, 6-(Oxazol-2-yl)-2-[(1,2,5,6-tetrahydropyridin-1-yl)carbonyl]imidazo[1,2-α]pyridine] the pEC50 was 7.25.
